Structures can show the parent of a compound that is named as a salt. Each block holds one compound with its values, some of them ahead of it.
Columns and labels:
[1] = test system: induced supraventricular tachycardia; assay: Supraventricular tachycardia (SVT) model in anesthetized dogs, IT vs IV; assay type: in vivo; conditions: for cardiovascular effect when given by intratracheal instillation (summary): dog, in vivo
Protocol: Supraventricular Tachycardia Model:
Anesthesia/Surgical Preparation:
A venous catheter was placed in a peripheral vessel (i.e., cephalic) for administration of anesthetic(s). For anesthesia induction, all animals were given a combination of diazepam (˜0.5 mg/kg) and ketamine (˜10 mg/kg) intravenously through this venous catheter. Anesthesia was sustained until completion of the study with an intravenous infusion of pentobarbital (5-15 mg/kg/hr). Following induction, animals were endotracheally intubated and mechanically ventilated (˜12 breaths/min with a tidal volume of 200-300 mL).
Subsequently, a cut-down on a jugular vein permitted the introduction of a pacing lead into the right atrium. Similarly, for arterial pressure monitoring, a solid-state micromanometer catheter (Millar Instruments) was advanced into the aortic root via a cut-down over an artery (e.g., femoral, carotid). Transthoracic electrodes forming ECG lead II was placed. For vehicle/test article delivery, a 4F catheter was introduced through the trachea and wedged into a small airway, and a venous catheter was placed in a peripheral vessel (i.e., cephalic).
Following instrumentation/hemodynamic stabilization (for at least 15 minutes), right atrial pacing (5-10 V, 40 Hz, 2 ms pulses) was established in order to induce supraventricular tachycardia (SVT); pacing and SVT was sustained throughout the duration of the experiments. Approximately 5 minutes after onset of SVT and while monitoring ECG/arterial pressure continuously, the animals were administered three escalating doses (one at a time) of a test article; each dose was delivered as a bolus (˜3 mL) directly into a small airway through the intratracheal catheter (IT). Following dosing, the heart-rate (HR) and arterial pressure response were monitored for 15 minutes.
Subsequently (once the response to three IT doses had been recorded), hemodynamic recovery was allowed for approximately 30 minutes, and the electrocardiographic/hemodynamic response to the highest test-article dose was re-evaluated; however, for comparison purposes, this dose was delivered intravenously (IV).
Overall, two groups/test-articles were studied, and up to two animals were assigned to each group (n=2/group): one group received esmolol HCL (0.5-1.0 mg/kg, ESM), while the other received adenosine (0.25-1.0 mg/kg, ADN); only one test article was administered to per animal.

[2] = test system: induced atrial fibrillation; assay: Induced atrial fibrillation model in anesthetized dogs, intratracheal (IT) administration; assay type: in vivo; conditions: for conversion of induced atrial fibrillation to normal sinus rhythm: pulmonary dose 0.25 mg/kg body weight (FIG. 13), hydrochloride
Protocol: Atrial Fibrillation Model: Anesthesia/Surgical Preparation: A venous catheter was placed in a peripheral vessel (i.e., cephalic) for administration of anesthetic. […] Following induction, animals were endotracheally intubated and mechanically ventilated (˜12 breaths/minute with a tidal volume of 200-300 mL). Subsequently, a cut-down on a jugular vein permitted introduction of a pacing lead into the right atrium. Transthoracic electrodes forming ECG lead II were placed. For test/vehicle article delivery, a 4F catheter was introduced through the trachea and wedged into a small airway, and a venous catheter was placed in a peripheral vessel (i.e., cephalic). […] Approximately 5 min after administration of this parasympathomimetic was started; the following experiments were performed: […] Observations were made for up to 10 minutes. […] Vehicle was only water.

Compound: Nc1ncnc2c1ncn2[C@@H]1O[C@H](CO)[C@@H](O)[C@H]1O [adenosine]
cardiovascular effect when given by intratracheal instillation (summary) [1]: a clear response was not observed
effect on the heart ([1]; via the lung): did not have any effect on the heart

pH of solution in water (3.5 mg/mL): 6.7
appearance of solution (distilled water, diltiazem hydrochloride 50 mg/ml, flecainide acetate 30 mg/ml): clear with no visible particulate matter
Compound: COc1ccc([C@@H]2Sc3ccccc3N(CCN(C)C)C(=O)[C@@H]2OC(C)=O)cc1 [diltiazem, diltiazem hydrochloride]
conversion of Atrial Fibrillation to normal sinus rhythm ([2]; IT bolus): rapidly converted the Atrial Fibrillation to normal sinus rhythm
cardiovascular effect when given by intratracheal instillation (summary) ([2]; dog, in vivo): clear cardiovascular effect
mean arterial blood pressure (MAP) ([2]; dog, in vivo, 0.25 mg/kg): notable drop in mean arterial blood pressure
PQ interval ([2]; pulmonary dose 0.25 mg/kg): prolonged the PQ interval
heart rate ([2]; pulmonary dose 0.25 mg/kg): slowed down but marginally
conversion of induced atrial fibrillation to normal sinus rhythm ([2]; 0.25 mg/kg): converted the induced atrial fibrillation to normal sinus rhythm
conversion of induced atrial fibrillation to normal sinus rhythm ([2]; listed as diltiazem HCl, 0.25 mg/kg): Afib converting after administration
pulmonary vs IV route ([1]; 0.25 mg/kg): comparable in all aspects
PR interval ([1]; IV or pulmonary route): prolonged the PR interval

Compound: CN(CCOc1ccc(NS(C)(=O)=O)cc1)CCc1ccc(NS(C)(=O)=O)cc1 [dofetilide]
effect on ventricular rate ([2]; IT bolus): marginally slowed the ventricular rate
cardiovascular effect when given by intratracheal instillation (summary) ([2]; dog, in vivo): probable effect
heart rate ([2]; escalating pulmonary doses of 10-40 mcg/kg body weight): minor reduction in heart rate

Compound: COC(=O)CCc1ccc(OCC(O)CNC(C)C)cc1 (stereo not shown) [esmolol, esmolol HCl]
period of AV block ([1]; 0.5 mg/kg via the lung (FIG. 17, 18)): AV block induced
period of AV block ([1]; 0.75 mg/kg via the lung (FIG. 20)): AV block induced
cardiovascular effect when given by intratracheal instillation (summary) [1]: probable effect
AV block ([1]; elevating IT doses): 2nd degree AV block at lower doses
PR intervals in the ECG traces ([1]; elevating IT doses): prolonging the PR intervals
electrophysiological effects ([1]; higher dose 1.0 mg/kg): did not produce the same electrophysiological effects

Reference: patent publication US10441537B2, “Unit doses, aerosols, kits, and methods for treating heart conditions by pulmonary administration” (InCarda Therapeutics, Inc., priority 2017, dated 2019)
